Experimental data as given in the NIST ThermoML archive (doi:10.1016/j.fluid.2015.07.045).
± gives the expanded uncertainty stated by the source.

Tests used:
[1] = 298.15 K; 101.33 kPa; Liquid; Vibrating tube method
[2] = Boiling temperature at pressure P; conditions: 101.3 kPa; Liquid; Ebulliometric method (Recirculating still)

Row | Compound | mass density [1] [kg/m3] | Boiling temperature at pressure P [2] [°C]
1 | CCCCCCn1cc[n+](C)c1.[Cl-] [1-hexyl-3-methylimidazolium chloride] | 1044.3 ± 0.5 | –
2 | C[n+]1ccn(Cc2ccccc2)c1.[Cl-] [1-benzyl-3-methyl-1H-imidazolium chloride] | 1192.8 ± 0.6 | –
3 | COC(C)=O [methyl ethanoate] | 927.3 ± 0.4 | 57.1 ± 0.1
4 | CO [methanol] | 787.1 ± 0.4 | 64.54 ± 0.1
5 | CCCCCCn1cc[n+](C)c1.[Br-] [3-hexyl-1-methyl-1H-imidazolium bromide] | 1229.2 ± 0.6 | –
